# From patent US12202829B2, “Heterocyclic compound” (FIMECS, Inc., priority 2018, dated 2025)
# How the values were obtained:
# GSK3α [1] = target: T1, GSK3α (Homo sapiens, UniProt P49840); experiment: KINOMEscan active site-dependent competitive binding assay, GSK3α; set-up: purchased Discover X (KINOMEscan service); conditions: test compound 1 μM; DMSO = 100% Ctrl, control compound = 0% Ctrl
# Experimental: (§1) Each of GSK3a/B and GCN2 binding inhibitory activity was evaluated using active site-dependent competitive assay KINOMEscan provided by Discover X (Goldstein, D. M. et al. High-throughput kinase profiling as a platform for drug discovery. Nat. Rev. Drug Discovery. 7, 391-397 (2008)). the “% Ctrl” when the concentration of the test compound is 1 μM is shown in the table below. The “% Ctrl” is calculated by the following formula. (test compound signal−positive control compound signal)/(negative control compound signal−positive control compound signal)×100 • Negative control compound=DMSO (100% Ctrl) • Positive control compound=control compound (0% Ctrl)
# GSK3α/β and GCN2 = experiment: Ubiquitin-proteasome system dependency of degradation in THP1 cells with Epoxomicin; type: cell-based, human; conditions: test compound 10 μM with or without 1 μM Epoxomicin, 8 hours, FIG. 2
# Experimental: THP1 cells were seeded at a density of 1×10^6 cells/well in 24-well plate and treated with DMSO control or Example 55 (10 μM) with or without 1 μM of Epoxomicin and incubated for 8 hours. The cells were collected and lysed on ice for 30 minutes in RIPA buffer (Thermo Fisher #87787) containing a protease inhibitor cocktail (Sigma-Aldrich). The lysates were sonicated for 30 sec ON/30 sec OFF for ten cycles and centrifuged for 15 minutes at 15 krpm at 4° C. Protein concentrations were determined by the BCA assay (Thermo Fisher). Proteins were separated with Nu-PAGE (Thermo Fisher) and analyzed by western blotting (standard protocol) using antibodies of anti-GSK3α/β Cell Signaling #5676), GCN2 (Cell Signaling #3302), and β-actin (Sigma #A2066) (FIG. 2).
# GCN2 [2] = target: T2, GCN2 (Homo sapiens, UniProt Q9P2K8); experiment: In vitro degradation activity of GCN2 in THP1 cells, western blotting; type: cell-based; conditions: test compound 10 μM, 24 hours, relative to DMSO control set at 100
# T2 construct: endogenous in cells; host or cells: THP1 (ATCC)
# T2 sequence (Q9P2K8 whole entry): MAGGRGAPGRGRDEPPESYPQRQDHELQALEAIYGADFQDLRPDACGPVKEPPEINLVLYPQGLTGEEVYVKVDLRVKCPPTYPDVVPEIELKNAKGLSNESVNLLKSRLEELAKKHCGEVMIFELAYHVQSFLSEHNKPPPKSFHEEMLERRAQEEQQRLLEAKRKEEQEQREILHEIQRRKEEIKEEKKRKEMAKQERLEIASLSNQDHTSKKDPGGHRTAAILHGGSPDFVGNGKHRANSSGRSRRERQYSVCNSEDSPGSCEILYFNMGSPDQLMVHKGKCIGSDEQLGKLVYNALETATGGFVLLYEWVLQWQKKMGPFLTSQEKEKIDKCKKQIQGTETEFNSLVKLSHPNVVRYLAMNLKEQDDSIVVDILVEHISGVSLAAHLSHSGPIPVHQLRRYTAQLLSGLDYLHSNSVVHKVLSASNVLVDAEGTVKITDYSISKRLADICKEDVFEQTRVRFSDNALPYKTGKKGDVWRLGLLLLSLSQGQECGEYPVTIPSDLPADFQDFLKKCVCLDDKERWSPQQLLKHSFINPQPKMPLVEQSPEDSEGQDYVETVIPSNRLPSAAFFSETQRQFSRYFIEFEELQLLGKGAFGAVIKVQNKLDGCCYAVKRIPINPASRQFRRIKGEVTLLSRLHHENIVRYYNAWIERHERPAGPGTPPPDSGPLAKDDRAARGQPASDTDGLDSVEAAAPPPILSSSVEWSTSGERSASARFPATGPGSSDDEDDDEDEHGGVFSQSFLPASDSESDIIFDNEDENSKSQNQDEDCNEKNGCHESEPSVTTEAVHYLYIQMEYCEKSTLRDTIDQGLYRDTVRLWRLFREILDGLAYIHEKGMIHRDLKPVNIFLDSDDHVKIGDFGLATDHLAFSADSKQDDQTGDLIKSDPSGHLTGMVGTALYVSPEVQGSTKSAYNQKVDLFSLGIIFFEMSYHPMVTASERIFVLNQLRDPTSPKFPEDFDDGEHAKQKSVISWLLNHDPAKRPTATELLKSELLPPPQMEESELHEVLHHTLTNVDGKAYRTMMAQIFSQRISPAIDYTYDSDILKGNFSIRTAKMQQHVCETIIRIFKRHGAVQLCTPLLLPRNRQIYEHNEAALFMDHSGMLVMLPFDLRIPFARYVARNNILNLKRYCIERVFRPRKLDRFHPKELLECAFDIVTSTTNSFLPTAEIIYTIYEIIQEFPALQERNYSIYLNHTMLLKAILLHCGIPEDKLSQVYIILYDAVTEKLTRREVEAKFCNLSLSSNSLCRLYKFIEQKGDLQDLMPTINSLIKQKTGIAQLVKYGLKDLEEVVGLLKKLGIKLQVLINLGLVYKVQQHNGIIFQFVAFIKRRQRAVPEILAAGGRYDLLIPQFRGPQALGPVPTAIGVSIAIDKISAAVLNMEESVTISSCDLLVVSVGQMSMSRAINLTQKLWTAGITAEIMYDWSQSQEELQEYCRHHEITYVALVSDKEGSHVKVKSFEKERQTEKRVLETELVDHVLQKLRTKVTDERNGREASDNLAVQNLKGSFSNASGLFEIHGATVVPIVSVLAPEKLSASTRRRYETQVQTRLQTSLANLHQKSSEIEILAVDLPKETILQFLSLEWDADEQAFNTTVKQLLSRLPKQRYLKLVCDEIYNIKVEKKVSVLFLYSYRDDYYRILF
# Experimental: (§2) In vitro degradation activities of GSK3α/β and GCN2 of the example compounds were evaluated by the following method. THP1 cells were purchased from ATCC and cultured in RPMI-1640 supplemented with 10% FBS and 1% penicillin/streptomycin. THP1 cells were seeded at a density of 1×10^6 cells/well in 24-well plate and treated with DMSO control or Example 55 (1, 3, 10 μM), and then incubated for 24 hours. The cells were collected and lysed on ice for 30 minutes in RIPA buffer (Thermo Fisher #87787) containing a protease inhibitor cocktail (Sigma-Aldrich). The lysates were sonicated for 30 sec ON/30 sec OFF for ten cycles and centrifuged for 15 minutes at 15 krpm at 4° C. Protein concentrations were determined by the BCA assay (Thermo Fisher). Proteins were separated with Nu-PAGE (Thermo Fisher) and analyzed by western blotting (standard protocol) using antibodies of anti-GSK3α/β (Cell Signaling #5676), GCN2 (Cell Signaling #3302), and R-actin (Sigma #A2066) (FIG. 1). Bands (luminescent intensities) were quantified using LAS-4000 luminescent image analyzer (Fuji). The values of GSK3α/β and GCN2 were corrected by the internal control value of β-actin and analyzed relative to DMSO control set at 100. The remaining protein rate (%) are described as A≤25%, 25%<B≤50%, 50%<C≤75%, D>75% when the concentration of the test compound is 10 μM.
# GCN2 [3] = target: T3, GCN2 (Homo sapiens, UniProt Q9P2K8, S808G); experiment: KINOMEscan active site-dependent competitive binding assay, GCN2; conditions: test compound 1 μM; DMSO = 100% Ctrl, control compound = 0% Ctrl
# T3 construct: purchased Discover X (KINOMEscan service)
# T3 sequence (Q9P2K8 590-1001 S808G limits assumed): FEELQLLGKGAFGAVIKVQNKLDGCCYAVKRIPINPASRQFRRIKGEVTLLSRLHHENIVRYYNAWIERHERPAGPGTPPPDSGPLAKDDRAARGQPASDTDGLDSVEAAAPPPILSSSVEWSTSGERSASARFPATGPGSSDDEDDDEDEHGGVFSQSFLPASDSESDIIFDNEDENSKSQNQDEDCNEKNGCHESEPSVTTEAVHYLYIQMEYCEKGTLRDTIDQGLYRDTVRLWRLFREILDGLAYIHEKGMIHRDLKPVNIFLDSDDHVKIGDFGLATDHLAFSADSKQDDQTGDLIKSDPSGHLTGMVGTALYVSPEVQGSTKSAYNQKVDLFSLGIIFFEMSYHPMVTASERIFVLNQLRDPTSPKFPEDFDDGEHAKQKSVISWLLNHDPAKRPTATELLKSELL
# Experimental: as §1
# GSK3α [4] = target: T1, GSK3α; experiment: In vitro degradation activity of GSK3α in THP1 cells, western blotting; type: cell-based; set-up: endogenous in cells; host or cells: THP1 (ATCC); conditions: test compound 10 μM, 24 hours, relative to DMSO control set at 100
# Experimental: as §2
# [5] = target: T4, human XIAP_BIR3 domain purified protein (Homo sapiens, UniProt P98170); experiment: XIAP binding inhibitory activity, HTRF method with b-Smac ligand; conditions: test compound 3 μM; first symbol of the cell; read-out: XIAP binding inhibition rate when the concentration of the test compound is 3 μM
# T4 construct: purchased R & D
# T4 sequence (P98170 252-356 limits assumed): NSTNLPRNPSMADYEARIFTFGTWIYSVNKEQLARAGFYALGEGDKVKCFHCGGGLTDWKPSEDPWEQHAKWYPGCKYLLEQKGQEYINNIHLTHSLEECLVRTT
# Summary of the method: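 HTRF competition: human XIAP BIR3 and C-terminally biotinylated Smac peptide AVPIAQK, each diluted to 90 nM before addition, in HEPES pH 7.5 buffer with NaCl, BSA, Triton X-100. Eu-cryptate anti-His/streptavidin-XL665 detection after ≥4 h at room temperature; inhibition % from 665/615 ratio versus no-compound control.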
# GSK3β [6] = target: T5, GSK3β (Homo sapiens, UniProt P49841); experiment: KINOMEscan active site-dependent competitive binding assay, GSK3β; set-up: purchased Discover X (KINOMEscan service); conditions: test compound 1 μM; DMSO = 100% Ctrl, control compound = 0% Ctrl
# T5 sequence (P49841 whole entry): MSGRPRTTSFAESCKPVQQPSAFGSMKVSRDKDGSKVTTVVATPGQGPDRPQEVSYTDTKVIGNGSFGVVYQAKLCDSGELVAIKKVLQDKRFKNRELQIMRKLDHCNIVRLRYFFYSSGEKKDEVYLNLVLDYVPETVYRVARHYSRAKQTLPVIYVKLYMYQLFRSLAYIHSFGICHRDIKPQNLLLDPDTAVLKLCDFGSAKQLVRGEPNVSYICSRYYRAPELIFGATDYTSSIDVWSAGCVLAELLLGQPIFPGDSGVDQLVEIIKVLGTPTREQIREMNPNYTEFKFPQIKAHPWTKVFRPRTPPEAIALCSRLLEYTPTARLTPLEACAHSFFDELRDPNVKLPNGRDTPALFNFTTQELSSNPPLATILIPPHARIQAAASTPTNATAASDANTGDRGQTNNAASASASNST
# Experimental: as §1
# GSK3β [7] = target: T5, GSK3β; experiment: In vitro degradation activity of GSK3β in THP1 cells, western blotting; type: cell-based; set-up: endogenous in cells; host or cells: THP1 (ATCC); conditions: test compound 10 μM, 24 hours, relative to DMSO control set at 100
# Experimental: as §2
# T1 sequence (P49840 whole entry): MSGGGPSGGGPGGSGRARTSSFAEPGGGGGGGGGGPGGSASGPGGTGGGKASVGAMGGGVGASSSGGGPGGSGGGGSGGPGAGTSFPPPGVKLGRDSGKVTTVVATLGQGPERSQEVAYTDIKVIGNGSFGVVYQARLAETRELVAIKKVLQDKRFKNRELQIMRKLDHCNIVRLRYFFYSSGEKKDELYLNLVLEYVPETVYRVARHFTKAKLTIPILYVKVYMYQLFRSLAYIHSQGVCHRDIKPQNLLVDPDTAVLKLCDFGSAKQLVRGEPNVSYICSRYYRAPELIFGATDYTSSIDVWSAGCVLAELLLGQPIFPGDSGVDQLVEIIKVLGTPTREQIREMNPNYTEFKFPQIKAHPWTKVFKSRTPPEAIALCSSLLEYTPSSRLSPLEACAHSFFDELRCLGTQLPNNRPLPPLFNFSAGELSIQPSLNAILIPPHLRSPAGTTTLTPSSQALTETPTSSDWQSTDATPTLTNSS
smiles,measurement,setting,value
"CN[C@@H](C)C(=O)N[C@H](C(=O)N1CCN(C(=O)c2c(C(=O)NCCOCCOCC(=O)N3CCN(c4ccc(Nc5ncc6nnn(-c7ccc(OC)c(OC)c7)c6n5)cc4)CC3)c3ccc(OC)cc3n2C)CC1)C1CCCCC1 [Example 55, 2-(4-((S)-2-Cyclohexyl-2-((S)-2-(methylamino)propanamido)acetyl)piperazine-1-carbonyl)-N-(2-(2-(2-(4-(4-((3-(3,4-dimethoxyphenyl)-3H-[1,2,3]triazolo[4,5-d]pyrimidin-5-yl)amino)phenyl)piperazin-1-yl)-2-oxoethoxy)ethoxy)ethyl)-6-methoxy-1-methyl-1H-indole-3-carboxamide]",remaining binding at 1 µM,GSK3α [1],39%
same,degradation activity of GSK3α/β and GCN2 with proteasome inhibitor Epoxomicin,GSK3α/β and GCN2,cancelled by the proteasome inhibitor Epoxomicin treatment
same,remaining protein rate (%) GCN2,GCN2 [2],A (A≤25%)
same,remaining binding at 1 µM,GCN2 [3],0.35%
same,remaining protein rate (%) GSK3α,GSK3α [4],B (25%<B≤50%)
same,inhibition at 3 µM,[5],> 75%
same,remaining binding at 1 µM,GSK3β [6],11%
same,remaining protein rate (%) GSK3β,GSK3β [7],B (25%<B≤50%)
